Laboratory results taken from US11116722B2, “Antifungal dry powders” (priority 2016, dated 2021).

Test system: Calu-3 cell line
Experimental: A bio-relevant dissolution testing system was used based on mimicking the air-liquid interface at the respiratory epithelium interface using a cell-based in vitro method. A modified next generation impactor that incorporated cell culture plates onto collection stages (cNGI) was used to uniformly deposit materials onto the cell cultures. Dissolution and permeation of the drug through the epithelial cell monolayer was measured.
Epithelial cell monolayers grown at the air-liquid interface in Snapwell™ (Corning Costar, Mass., USA) permeable insert were integrated into the cNGI. […] The transepithelial electrical resistance (TEER) was measured using an EVOM2 chopstick electrode connected to an EVOM2 Epithelial Voltohmmeter (World Precision Instruments, Hitchin, United Kingdom) and monolayers with a TEER above 450Ω.cm^2 were deemed confluent. […]
Post-dosing of the dose on to the Snapwells from stage 4, the Snapwells were transferred to 6-well plates, which contained 2 mL of PBS pH 7.4+2.0% SDS maintained at 37° C. Basolateral samples were taken at different time points and drug content was measured on an Agilent (Santa Clara, Calif., USA) 1260 Infinity series HPLC. Total dose delivered to the cells was measured from the total amount of drug dissolved over the time-course and from lysing cells post experimentation. […]

CCC(C)n1ncn(-c2ccc(N3CCN(c4ccc(OCC5COC(Cn6cncn6)(c6ccc(Cl)cc6Cl)O5)cc4)CC3)cc2)c1=O (centres unmarked) [Pure ITZ, Itraconazole]
dissolution and permeability kinetics / rate of diffusion (in words): slower dissolution and permeability kinetics than the other formulations | Rate of Diffusion (human, pH 7.4): 1.81 cm/s
